Test system: caspase-3/-7-like activities in brain slices
Test: TPFM of caspase-3 activation in brain slices of ethanol-intoxicated mouse
Details: 200-μm-thick brain sections of ethanol-intoxicated 7-day-old C57BL/6 mice, probe 120 μM, 3 h, 37 °C, Z-axis scanning TPFM
Description: Figure 4 Imaging endogenous caspase activities in deep tissues. (a) TPFM of caspase-3 activation in brain slices of ethanol-intoxicated 7-day-old C57BL/6 mouse using C3RA (120 μM, 3 h). Top: 3D images of the mouse brain slice taken along the Z-axis from 0 to 160 μm at 10x magnification. Bottom: images taken at a depth of 120 μm at 40x magnification. […]: control slices (saline-treated); panels 2/6/4/8: treated with caspase-3/7 inhibitor I (200 μM, 3 h). Scale bar = 50 μm. (b) RFU readings extracted from (a) (FTPFM, blue bars) versus those from in vitro enzymatic assays using lysates from the same brain slices (RFU, orange bars). The signal from saline controls was set as “0” and that from ethanol-treated samples was set as “1” in RFU quantification. Due to the base-level active caspase-3 in the saline controls, negative readings were shown with inhibitor-treated samples. (c) WB analysis of caspase-3/-1/-8 activation in lysates of the same mouse brain slices shown in (a). (d) Normalized RFU readings from in vitro enzymatic assays using brain lysates (300 μg) of saline/ethanol treated mice after incubation with C1RB/C3RA/C8RA (6 μM) for 1 h at 37 °C.
All two-photon images were taken on a Leica TCS SP5X Confocal Microscope System. […]

Question: With `CC(=O)N[C@@H](CC(=O)O)C(=O)N[C@@H](CCC(=O)O)C(=O)N[C@H](C(=O)N[C@@H](CC(=O)O)C(=O)Nc1ccc2cc(C(C)=O)ccc2c1)C(C)C` [C3RA, Ac-DEVD-AAN] as the compound, how does the “tissue depth of detection of caspase-3/-7-like activities” value read?
Answer: Its value is ≤ 160 μm.

From paper PMC4876444, “Two-Photon Enzymatic Probes Visualizing Sub-cellular/Deep-brain Caspase Activities in Neurodegenerative Models” (Scientific Reports, 2016)
